Source: patent US12653799B2, “Compositions and methods for treating Alzheimer's disease” (ELEANORE BENNETT CHARITABLE TRUST #2, priority 2021, dated 2026)

Key:
[1] = test system: Akt phosphorylation in Aβ42-expressing SH-SY5Y cells; assay: Akt activation in Aβ42-expressing cells (adenovirus/doxycycline, insulin-stimulated); type: cell-based
Description: Adv TetOn and TRE-Aβ42 viruses were described previously (Magrane et al., 2005). […] Insulin (10 or 40 nM) was added in the last 20-30 min before harvest. […] Cell extracts were prepared in lysis buffer [20 mM Tris-HCl (pH 7.5), 150 mM NaCl, 1 mM EDTA, 1 mM Na3VO4, 1% NP-40, 10% Glycerol, 1 mM Na4P2O7, 1 μg/ml Leupeptin, 1 μg/ml Pepstatin A, 1 μg/ml Aprotinin, 0.1 mM phenylmethylsulfonyl fluoride, and protease inhibitor cocktail (Roche)] and were stored at −80° C. until use.
Whole-cell extracts were used directly for western blot analysis (20˜30 μg). Extracts from cultured cells prepared in lysis buffer, were diluted into Laemmli sample buffer, heated (95° C., 10 min), cleared by centrifugation, separated on SDS-PAGE and transferred to PVDF membrane (Immobilon-P; Millipore). Membranes were blocked in TBS containing 0.3% Tween-20 and 5% (wt/vol) non-fat dry milk. After incubation with primary antibodies (18 hr at 4° C. in buffer containing 5% bovine serum albumin (BSA) and 0.05% NaN3), blots were washed and incubated in horseradish peroxidase (HRP)-conjugated secondary antibodies (1:2000 dilution; Cell Signaling). Signals were detected using ECL reagents and quantified using a Kodak Image Station 4000R.
[…]. […] […]. […] […].

[2] = test system: mTOR; assay: Downstream mTOR phosphorylation; type: cell-based; details: PS48 1 or 10 μM, 2-4 hrs before doxycycline
[3] = target: T1, Akt-1 (Homo sapiens, UniProt P31749); assay: Fluorescence polarization, FAM-Aβ42 binding to Akt-1 in solution; details: PS48 10, 20, and 100 μM; results not shown
T1 construct: purchased Amsbio

[4] = test system: APP/PS-1 transgenic mice; assay: Morris water maze in APP/PS-1 transgenic mice, PS48 via diet; type: in vivo, mouse; details: for time spent over the platform area, acquisition probe: TG
Description: Next, a series of experiments was performed using a Morris water maze. WT mice fed standard diet (SD) reached the hidden platform in a shorter time compared to TG-SD mice. […] The PS48 effect was more pronounced within the standard diet condition. *p<0.05, **p<0.01, ANOVA; ^p<0.05, t-test. WT mice fed standard diet (SD) reached the hidden platform zone in a shorter distance compared to TG-SD mice. […] The PS48 effect was more pronounced within the standard diet condition. Memory acquisition for the location of the escape platform location was tested in 12-month-old APP/PS1 transgenic and littermate mice. The removed escape platform was located in the northeast quadrant of the tank. […] The 10 cm platform is indicated in the figure by the shaded circle in the upper right quadrant. The following metrics were quantified: (1) time spent swimming over the target area, (2) latency to attain the target area, (3) path length to platform, and (4) number of crossings over the area. […] Transgenic animals fed high fat diet (HFD) performed less well than those on standard diet. […] Lower latency values indicate better recall for the target location. […] Animals were retrained with the platform in the SE quadrant and probe phase conducted as before. FIGS. 13E-13H show path length taken, in cm, to first reach hidden platform. […] Similar probe results were obtained in the subsequent reversal trial. […] (±1 SEM, n=16 data points per group, *p<0.05, **p<0.01, ++p<0.001). […] The data has similar import to time spent over platform area above.

[5] = test system: transgenic mice; assay: Contextual and cued fear conditioning; type: in vivo, mouse; details: 16-month-old Tg mice; no significant changes
Description: Next, a series of experiments was performed to assess contextual and cued fear conditioning. 16-month-old mice WT, TG w/vehicle, and TG w/PS48 were first habituated to establish activity levels (300 sec), then presented 3 shock-tone pairings, followed by probes of contextual and cued fear memory. Prior to conditioning to the tone and foot shock, mice in all groups experienced very low levels of freezing (Baseline Freezing Day 1) (FIG. 14A) and the expected freezing to the shock (FIG. 14B).
After the conditioning procedure, when mice were placed back in the same context but without tone or shock (Day 2), freezing was measured over 8 minutes, the last 4 minutes were quantified.
On Day 3 the context was changed for 2 minutes (12 bins) and mice were exposed to a continuous tone (cue) used during conditioning for 8 minutes. […] Freezing % was quantified as the number of 10-sec epochs in which there was no beam break over the total number of epochs in the 4-minute period (24). […] Sec FIG. 14D.

[6] = test system: C57BL/6 mice; assay: Safety of PS48 by oral gavage for 14 days; type: in vivo, mouse; details: oral gavage 1 or 50 mg/kg per day
Description: Finally, a series of in vivo experiments was performed to assess safety of treatment with PS48. […] Similarly, when PS48 was given by oral gavage over 2 weeks, there were no signs of toxicity by gross observation, organ specific necropsy, or weight.
Adult C57BL/6 mice (n=6 per group) were administered PS48 for 14 days. A low dose group received 1 mg/kg per day, while a high dose group received 50 mg/kg per day. A negative control group received corn oil. […] Body and organ specific weights were unaffected at necropsy. Fasting serum glucose at trial end was unchanged (˜150 mg/dl).

[7] = test system: cells; details: WST-1
Description: (§1) SH-SY5Y cells were washed twice in warm Dulbecco's phosphate-buffered saline (DPBS) and incubated in 1 ml DMEM containing 0.5 mg (3-[4,5-dimethylthiazol-2-yl]-2,5-diphenyltetrazolium bromide) (MTT or WST; Molecular Probes, Eugene, OR) for 2-3 h at 37° C. and 5% CO2. The medium was aspirated and the cells were washed twice with pre-warmed DPBS. The formazan salts were dissolved in 1 ml pure ethanol before use. Cells were homogenized by repetitive pipetting and centrifuged for 5 min at 4500 rpm, and the supernatant collected. Absorbance was read against an ethanol blank at 590 nm.

[8] = test system: C2C12 myotubes; assay: Cell viability (cytoprotection) in C2C12 myotubes
Description: Cell viability as measured by MTT assay.
Mouse C2C12 cells (ATCC) were grown in Dulbecco's modified Eagle medium (DMEM), 20% fetal bovine serum (FBS) (Invitrogen), and maintained for passage below 60% confluence. Cultures at or above 90% confluence were then differentiated in DMEM, 2% adult horse serum (DM) for 3 days before use.

[9] = test system: SH-SY5Y cells; assay: Cell viability, MTT assay, Aβ42-expressing SH-SY5Y cells
Description: FIG. 2A. Cell viability as measured by MTT assay.
as §1

[10] = test system: Akt Ser 473 phosphorylation in N2a cells; assay: Insulin sensitization at subthreshold insulin in N2a cells; details: insulin 3 nM, 15 min; PS48 0.1 to 100 μM, 2 hrs
[11] = test system: Akt Ser473 and mTOR Ser2448 phosphorylation in rat primary cortical neurons; assay: Over-activation test in insulin-stimulated primary cortical neurons; details: PS48 0.01 to 100 μM for 2 hrs or 24 hrs; 20 nM insulin
Description: Western blots shown above and corresponding quantified results shown below. n=2.

T1 sequence (P31749 whole entry): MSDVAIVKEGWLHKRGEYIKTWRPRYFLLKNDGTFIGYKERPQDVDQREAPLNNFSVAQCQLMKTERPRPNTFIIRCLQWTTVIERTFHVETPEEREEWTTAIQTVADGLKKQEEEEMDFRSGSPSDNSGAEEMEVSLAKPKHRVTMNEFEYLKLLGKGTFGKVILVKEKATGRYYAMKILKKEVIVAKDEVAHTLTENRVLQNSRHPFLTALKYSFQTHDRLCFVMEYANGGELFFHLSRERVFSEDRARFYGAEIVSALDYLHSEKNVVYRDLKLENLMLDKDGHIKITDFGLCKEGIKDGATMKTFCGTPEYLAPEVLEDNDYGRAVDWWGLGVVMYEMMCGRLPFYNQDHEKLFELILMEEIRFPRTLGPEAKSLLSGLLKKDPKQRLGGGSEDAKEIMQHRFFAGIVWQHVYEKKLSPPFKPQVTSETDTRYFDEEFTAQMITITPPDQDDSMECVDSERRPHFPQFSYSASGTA

In the case of `O=C(O)/C=C(/CCc1ccc(Cl)cc1)c1ccccc1` [PS48, (Z)-5-(4-chlorophenyl)-3-phenylpent-2-enoic acid], the “concentration at which the dose-dependent reversal became apparent” value ([1]; SH-SY5Y and C2C12 myotube cell lines, p<0.01) is reported as 100 nM, the “reversal of Aβ42 inhibition of insulin-stimulated Akt phosphorylation” value ([1]; SH-SY5Y and C2C12 myotube data combined, PS48 100 nM and 1 μM (and 10 μM)) is reported as “significantly reversed the Aβ42 effect” and the “Akt activation (pT308) in β-amyloid-expressing cells” value ([1]; SH-SY5Y, PS48 1 μM or insulin 100 nM added 2 hrs before doxycycline, insulin 40 nM 20 min prior to harvest) is reported as “restored basal Akt activation levels”. For the same compound, the “basal Akt, compound alone” value ([1]; SH-SY5Y, PS48 1 μM, no Aβ42 induction) was “did not over-stimulate”, the “Akt activity: phosphorylation of GSK3α/β consensus peptide by immunoprecipitated Akt (in vivo-in vitro coupled assay)” value ([1]; SH-SY5Y, PS48 pre-treatment 50 nM, 2 hrs before doxycycline) was “prevented the inhibition of peptide phosphorylation by Aβ42” and the “downstream mTOR substrate phosphorylation” value [2] was “unchanged”. For the same compound, the “effect of PS48 additions on polarization signal” value [3] was “did not affect either polarization signal”, the “latency to reach the hidden platform, place learning and reversal tasks” value ([4]; PS48 orally through diet, SD and HFD, more pronounced on standard diet) was “tended to reduce latency” and the “time spent over the platform area, acquisition probe” value ([4]; HFD supplemented with PS48, p<0.01 vs Tg HFD w/V) was “most significant improvement”. For the same compound, the “time spent over the platform area, acquisition probe” value ([4]; standard diet with PS48, p<0.10 vs vehicle fed) was “improved in this measure”, the “path length, acquisition and reversal data combined” value ([4]; Tg HFD group) was “significantly benefited” and the “latency to platform, acquisition probe” value ([4]; Tg mice on standard or high fat diet vs vehicle controls) was “Results favored”. For the same compound, the “path length to first reach hidden platform, probe” value ([4]; Tg on standard or HFD diet) was “trended improvements in the direction of WT”, the “crossing numbers over removed platform location” value ([4]; both probe trials combined, p<0.05 vs vehicle) was “performed significantly better than vehicle” and the “distance to zone to reach the hidden platform” value ([4]; dietary PS48, SD and HFD, more pronounced on standard diet) was “tended to reduce distance to zone”. The “cue fear conditioning, freezing” value [5] was “a trend in cue conditioning paradigm favored PS48 treatment”, the behavioral changes [6] was “No overt behavioral changes” and the “body and organ specific weights at necropsy” value [6] was “unaffected”. The tolerability [6] was “well tolerated”, the “fasting serum glucose at trial end” value ([6]; unchanged) was ~150 mg/dL and the LD50 [7] was 250 µM. The cytoprotection [8] was “same cytoprotection”, the “cell viability, comparison with PPAR agonist (FIG. 2B)” value ([9]; PS48 10 μM, pioglitazone 5 μM) was “compared favorably” and the “cell viability (MTT) of amyloid-bearing cells” value ([9]; pretreatment before doxycycline, PS48 10 μM or insulin 100 nM, harvested at 48 hrs) was “reverted cells to basal condition or better”. The “phosphorylation of Ser 473 at subthreshold insulin” value [10] was “boosting the phosphorylation of Ser 473 to a 20 nM insulin-equivalence response” and the “Akt Ser473 and mTOR Ser2448 phosphorylation” value [11] was “did not over-activate Akt Ser473 or affect mTOR Ser2448 phosphorylation”.
